According to patent publication US11866720B2, “Transgenic or non-transgenic plants with mutated protoporphyrinogen oxidase having increased tolerance to herbicides” (priority 2013, dated 2024):
“And” between values parts separate entries of the source, which are not always exact repeats. Equal values may be shown once. Read-outs that look alike come from different tables or passages of the source.

Columns and labels:
[1] = test system: transgenic soybean expressing mutated PPO; type: in vivo, Glycine max; conditions: T1 soybean, field, 3 days after treatment; for injury (1-5 point scale): benzoxazin 50 g ai/ha; on injury (1-5 point scale): key: 1: no obvious damage (no phytotoxicity); 2: minor amount of leaf damage, plant will survive; 3: moderate amount of leaf damage, plant will survive; 4: severe amount of leaf damage, plant will survive; 5: no surviving plants - all plants dead/dying
[2] = test system: transgenic soybean expressing mutated PPO; test: Soybean segregating T1 individuals, greenhouse spray test (injury 0-9); type: in vivo, Glycine max; conditions: 1 week after treatment

C1=Cc2ccccc2ON1 [benzoxazin]
Injury rating (1-5 point scale) ([1]; SDS-10562 LTM377-1 AmtuPPX2L_dG210, benzoxazin (50 gai/ha)): 3
Injury rating (1-5 point scale) ([1]; SDS-10562 LTM377-1 AmtuPPX2L_dG210, benzoxazin (100 gai/ha)): 3
Injury rating (1-5 point scale) ([1]; SDS-10566 LTM377-1 AmtuPPX2L_dG210, benzoxazin (50 gai/ha)): 3
Injury rating (1-5 point scale) ([1]; SDS-10566 LTM377-1 AmtuPPX2L_dG210, benzoxazin (100 gai/ha)): 3
injury (1-5 point scale) ([1]; SDS-10648 AmtuPPX2L R128A_F420I): 3
Injury rating (1-5 point scale) ([1]; SDS-10656 LTM377-1 AmtuPPX2L_dG210, benzoxazin (50 gai/ha)): 4
Injury rating (1-5 point scale) ([1]; SDS-10656 LTM377-1 AmtuPPX2L_dG210, benzoxazin (100 gai/ha)): 4
injury (1-5 point scale) ([1]; SDS-10791 AmtuPPX2L R128A_F420I): 2
Injury rating (1-5 point scale) ([1]; SDS-10998 LTM387-1 AmtuPPX2L_R128A_F420V, benzoxazin (50 gai/ha)): 2.5
Injury rating (1-5 point scale) ([1]; SDS-10998 LTM387-1 AmtuPPX2L_R128A_F420V, benzoxazin (100 gai/ha)): 2.5
injury (1-5 point scale) ([1]; SDS-11014 AmtuPPX2L R128A_F420I): 2
injury (1-5 point scale) ([1]; SDS-11034 AmtuPPX2L L397D_F420V): 2
Injury rating (1-5 point scale) ([1]; SDS-11034 LTM387-1 AmtuPPX2L_R128A_F420V, benzoxazin (50 gai/ha)): 2
Injury rating (1-5 point scale) ([1]; SDS-11034 LTM387-1 AmtuPPX2L_R128A_F420V, benzoxazin (100 gai/ha)): 2
injury (1-5 point scale) ([1]; SDS-11035 AmtuPPX2L R128A_F420V): 2
Injury rating (1-5 point scale) ([1]; SDS-11035 LTM387-1 AmtuPPX2L_R128A_F420V, benzoxazin (50 gai/ha)): 2
Injury rating (1-5 point scale) ([1]; SDS-11035 LTM387-1 AmtuPPX2L_R128A_F420V, benzoxazin (100 gai/ha)): 2
injury (1-5 point scale) ([1]; SDS-11052 AmtuPPX2L R128A_F420M): 3
Injury rating (1-5 point scale) ([1]; SDS-11105 LTM387-1 AmtuPPX2L_R128A_F420V, benzoxazin (50 gai/ha)): 3
Injury rating (1-5 point scale) ([1]; SDS-11105 LTM387-1 AmtuPPX2L_R128A_F420V, benzoxazin (100 gai/ha)): 3
Injury rating (1-5 point scale) ([1]; SDS-11110 LTM387-1 AmtuPPX2L_R128A_F420V, benzoxazin (50 gai/ha)): 3
Injury rating (1-5 point scale) ([1]; SDS-11110 LTM387-1 AmtuPPX2L_R128A_F420V, benzoxazin (100 gai/ha)): 3
Injury rating (1-5 point scale) ([1]; Wildtype Jake, benzoxazin (50 gai/ha)): 5
Injury rating (1-5 point scale) ([1]; Wildtype Jake, benzoxazin (100 gai/ha)): 5
injury (1-5 point scale) ([1]; wild type): 5

CCOc1cc(Oc2ccc(C(F)(F)F)cc2Cl)ccc1[N+](=O)[O-] [Oxyfluorfen]
injury (0-9 point scale) ([2]; SDS10791 AmtuPPX2L R128A_F420I, Oxyfluorfen 600 g ai/ha): 4 (3×) and 8 and 5 (3×) and 3
injury (0-9 point scale) ([2]; SDS10791 AmtuPPX2L R128A_F420I, Oxyfluorfen 1200 g ai/ha): 9 (2×) and 4 (2×) and 5 (4×)
injury (0-9 point scale) ([2]; SDS-10642 AmtuPPX2L R128A_F420L, Oxyfluorfen 600 g ai/ha): 2 (3×) and 4 and 3 (3×) and 8
injury (0-9 point scale) ([2]; SDS-10648 AmtuPPX2L R128A_F420I, Oxyfluorfen 600 g ai/ha): 5 and 7 and 6 (2×) and 8 (2×) and 9 and 3
injury (0-9 point scale) ([2]; SDS-10648 AmtuPPX2L R128A_F420I, Oxyfluorfen 1200 g ai/ha): 5 (3×) and 9 (4×) and 4
injury (0-9 point scale) ([2]; SDS-10652 AmtuPPX2L L397D_F420V, Oxyfluorfen 600 g ai/ha): 4 (3×) and 5 and 6 (2×) and 9
injury (0-9 point scale) ([2]; SDS-10787 AmtuPPX2L R128A_F420L, Oxyfluorfen 600 g ai/ha): 6 (3×) and 5 (2×) and 8
injury (0-9 point scale) ([2]; SDS-10985 AmtuPPX2L R128A_F420M, Oxyfluorfen 600 g ai/ha): 1 and 3 (3×) and 4 (3×) and 9
injury (0-9 point scale) ([2]; SDS-10985 AmtuPPX2L R128A_F420M, Oxyfluorfen 1200 g ai/ha): 5 (3×) and 4 (3×) and 8 (2×)
injury (0-9 point scale) ([2]; SDS-10990 AmtuPPX2L R128A_F420M, Oxyfluorfen 600 g ai/ha): 4 (4×) and 8 and 3 and 9 and 5
injury (0-9 point scale) ([2]; SDS-10990 AmtuPPX2L R128A_F420M, Oxyfluorfen 1200 g ai/ha): 9 and 5 (5×) and 4 (2×)
injury (0-9 point scale) ([2]; SDS-11034 AmtuPPX2L R128A_F420V, Oxyfluorfen 600 g ai/ha): 4 (3×) and 9 and 5 (3×)
injury (0-9 point scale) ([2]; wild type, Oxyfluorfen 600 g ai/ha): 8 (3×) and 7 (3×) and 9 (2×)

C#CCN1C(=O)COc2cc(F)c(N3C(=O)C4=C(CCCC4)C3=O)cc21 [Flumioxazin, flumioxazin]
injury (0-9 point scale) ([2]; SDS10791 AmtuPPX2L R128A_F420I, Flumioxazin 150 g ai/ha): 3 (5×) and 1 (3×)
injury (0-9 point scale) ([2]; SDS-10642 AmtuPPX2L R128A_F420L, Flumioxazin 150 g ai/ha): 3 (3×) and 2 (2×) and 1 (2×) and 9
injury (0-9 point scale) ([2]; SDS-10648 AmtuPPX2L R128A_F420I, Flumioxazin 150 g ai/ha): 9 (5×) and 5 (3×)
injury (0-9 point scale) ([2]; SDS-10652 AmtuPPX2L L397D_F420V, Flumioxazin 150 g ai/ha): 9 and 6 (3×) and 5 (2×) and 4 (2×)
injury (0-9 point scale) ([2]; SDS-10787 AmtuPPX2L R128A_F420L, Flumioxazin 150 g ai/ha): 9 (2×) and 5 (4×) and 4 (2×)
injury (0-9 point scale) ([2]; SDS-10985 AmtuPPX2L R128A_F420M, Flumioxazin 150 g ai/ha): 9 (3×) and 6 (2×) and 4 (2×) and 5
injury (0-9 point scale) ([2]; SDS-10990 AmtuPPX2L R128A_F420M, Flumioxazin 150 g ai/ha): 6 (5×) and 5 (2×) and 9
injury (0-9 point scale) ([2]; SDS-11034 AmtuPPX2L R128A_F420V, Flumioxazin 150 g ai/ha): 5 (3×) and 4 and 6 (2×) and 9 and 3
injury (0-9 point scale) ([2]; wild type, Flumioxazin 150 g ai/ha): 9
